In patent US20210177982A1, “MUCUS-PENETRATING PEPTIDES, DELIVERY VEHICLES AND METHODS OF THERAPY” (DNALite Therapeutics, Inc., priority 2018, published 2021):
Ends that are not written are not given here.

Assays:
[1] = pH 7 (No salt); cited from earlier work
[2] = 25° C., RP-HPLC, Ac-X-G-A-K-G-A-G-V-G L-amide; cited from earlier work
[3] = tested on: mucin from porcine stomach; test: Peptide mucin interaction assay (dynamic light scattering); assay type: binding; conditions: peptide conjugated to DSPE-PEG2k-DBCO at 0.08% mol on MVL5/DOPC/Chol base system with DNA; 0.5 mg/mL mucin, sample:mucin 5:2
Procedure: DSPE-PEG2k-DBCO (Avanti Polar Lipids) was hydrated in water and agitated to form a transparent solution. Synthesized peptides with a lysine containing an azide on the N-terminus were conjugated to it. 2.5× moles of the azide peptides were added to the lipid mix and were left to react overnight. 10× moles of sodium azide were added to the reaction to quench it.
Thin film hydration was used to make a lipid base system composed of MVL5/DOPC/Chol (30/60/10% mol). Briefly, the lipids were dissolved in chloroform: methanol (9:1) and mixed. The lipids were then dried using a rotovap and hydrated in a HEPES-glucose buffer (10 mM HEPES, 230 mM Glucose, pH 7.4) for a final concentration of 1 mM. The lipid suspension was extruded through a 200 nm pore size filter for 20 passes using the NanoSizer MINI (T&T Scientific Corporation, Tennessee). An appropriate amount of DNA was added to the lipid base system for a charge ratio of +3 (assuming MVL5 has a charge ratio of +3 at neutral pH) and the solution was mixed thoroughly and let rest for 20 min. DSPE-PEG2k-DBCO conjugated peptides were added to the base system for a final lipid concentration of 0.08% mol. DSPE-SS-PEG2k was added to the base system for a final lipid concentration of 5% mol. The solutions were incubated for 1 h at 60° C.
For each sample, purified 0.5 mg/mL mucin from porcine stomach (Sigma Aldrich) was added to the sample at a sample:mucin volume ratio of 5:2. Dynamic light scattering was used to measure changes in light scattering in the presence of and without mucin for each sample. […] Thus SEQ ID NO. […] Thus SEQ ID NO. […] Thus SEQ ID NO. […] 4 conjugated systems, where peak shifting was not observed in the presence of mucin. Thus SEQ ID NO. […] 5 conjugated systems where peak shifting was not observed in the presence of mucin. Thus SEQ ID NO. […] 6 conjugated systems where peak shifting was not observed in the presence of mucin. Thus SEQ ID NO. […] FIG. 11 show SEQ ID NO. 7 conjugated systems where peak shifting was not observed in the presence of mucin. Thus SEQ ID NO. […] Thus SEQ ID NO. […] Thus SEQ ID NO. […] Thus, SEQ ID NO. […] Thus SEQ ID NO. […] FIG. 16 show SEQ ID NO. […] Thus SEQ ID NO.

Molecule | Fauchere Score [1] | ΔtR(Gly), pH 2, 20 mM H3PO4 [2] | ΔtR(Gly), pH 2, 20 mM TFA [2] | ΔtR(Gly), pH 5, 10 mM PO4 Buffer [2] | ΔtR(Gly), pH 7, 10 mM PO4 Buffer +50 mM NaCl [2] | ΔtR(Gly), pH 7, 10 mM PO4 Buffer +50 mM NaClO4 [2] | ΔtR(Gly), pH 7, 10 mM PO4 Buffer, No Salt [2] | interaction with mucin (shift in DLS light intensity peak) [3]
C[C@H](N)C(=O)O [Ala] | 0.3 | 3.6 | 2.8 | 3.3 | 4.1 | 3.4 | 3.9 | –
N=C(N)NCCC[C@H](N)C(=O)O [Arg] | −1.010 | −5.0 | 0.6 | −3.7 | 4.1 | 6.4 | 3.9 | –
NC(=O)C[C@H](N)C(=O)O [Asn] | −0.600 | 0.0 | −0.6 | 0.0 | 1.0 | 30.8 | 0.5 | –
N[C@@H](CC(=O)O)C(=O)O [Asp] | −0.770 | 2.2 | 1.6 | −1.0 | −0.8 | −7.6 | −0.9 | –
N[C@@H](CS)C(=O)O [Cys] | – | 8.1 | 7.6 | 7.9 | 9.1 | 8.2 | 8.3 | –
NC(=O)CC[C@H](N)C(=O)O [Gln] | −0.220 | 0.5 | 0.6 | 0.6 | 1.6 | 0.0 | 0.5 | –
N[C@@H](CCC(=O)O)C(=O)O [Glu] | −0.640 | 3.6 | 2.8 | −0.5 | −0.4 | −7.1 | −0.9 | –
NCC(=O)O [Gly, Glycine] | 0 | 0.0 | 0.0 | 0.0 | 0.0 | 0.0 | 0.0 | –
N[C@@H](Cc1c[nH]cn1)C(=O)O [His] | 0.130 | −7.0 | 0.0 | −5.1 | 4.7 | 3.4 | 3.4 | –
CC[C@H](C)[C@H](N)C(=O)O [Ile] | 1.8 | 21.3 | 21.4 | 22.2 | 22.8 | 23.0 | 22.4 | –
CC(C)C[C@H](N)C(=O)O [Leu] | 1.7 | 23.4 | 23.3 | 24.1 | 24.6 | 25.1 | 24.2 | –
NCCCC[C@H](N)C(=O)O [Lys] | −0.990 | −7.0 | 2.8 | −3.7 | −2.0 | 3.4 | −1.1 | –
CSCC[C@H](N)C(=O)O [Met] | 1.230 | 16.1 | 15.7 | 16.4 | 17.3 | 16.8 | 16.3 | –
N[C@@H](Cc1ccccc1)C(=O)O [Phe] | 1.79 | 29.1 | 29.1 | 30.1 | 30.1 | 30.8 | 29.9 | –
N[C@@H](CO)C(=O)O [Ser] | – | 0.0 | 0.0 | 0.0 | 1.2 | 30.5 | 0.5 | –
CCCC[C@H](N)C(=O)O [n-Leu, norleucine] | – | 24.6 | 24.6 | 25.6 | 25.9 | 26.6 | 25.6 | –
CCC[C@H](N)C(=O)O [n-Val, norvaline] | – | 15.4 | 15.2 | 15.9 | 16.9 | 16.8 | 16.3 | –
ADDLENVNEGMRIH [SEQ ID NO. 21] | – | – | – | – | – | – | – | found to not be mucin interacting
DATDRFHGPDAL [SEQ ID NO. 26] | – | – | – | – | – | – | – | found to be mucin interacting
DPVDTPNPTRRKPGK [SEQ ID NO. 24] | – | – | – | – | – | – | – | found to be mucin interacting
EPDNWSLDFPRR [SEQ ID NO. 8] | – | – | – | – | – | – | – | found to interact with mucin
HPGSPFPPEHRP [SEQ ID NO. 12] | – | – | – | – | – | – | – | found to be interacting with mucin

Molecule | Fauchere Score [1] | ΔtR(Gly), pH 2, 20 mM H3PO4 [2] | ΔtR(Gly), pH 2, 20 mM TFA [2] | ΔtR(Gly), pH 5, 10 mM PO4 Buffer [2] | ΔtR(Gly), pH 7, 10 mM PO4 Buffer +50 mM NaCl [2] | ΔtR(Gly), pH 7, 10 mM PO4 Buffer +50 mM NaClO4 [2] | ΔtR(Gly), pH 7, 10 mM PO4 Buffer, No Salt [2] | interaction with mucin (shift in DLS light intensity peak) [3]
KTIEAHPPYYAS [SEQ ID NO. 7] | – | – | – | – | – | – | – | found not to interact with mucin
LIIYRDLISH [SEQ ID NO. 36, reference compound] | – | – | – | – | – | – | – | disappearance of the system peak was observed demonstrating mucin interaction
LSTAADMQGVVTDGMASGLDKDYLKPDD [SEQ ID NO. 22] | – | – | – | – | – | – | – | found to not interact with mucin
MAKPAQGAKY [SEQ ID NO. 2] | – | – | – | – | – | – | – | found to interact with mucin
MATKGGTVKA [SEQ ID NO. 1] | – | – | – | – | – | – | – | found not to interact with mucin
MSVTGGKMAP [SEQ ID NO. 3] | – | – | – | – | – | – | – | found to be interacting with mucin
NIENSTLATPLS [SEQ ID NO. 32] | – | – | – | – | – | – | – | found to be mucin interacting
NSGTMQSASRAT [SEQ ID NO. 5] | – | – | – | – | – | – | – | found not to interact with mucin
NYTTYKSHFQDR [SEQ ID NO. 9] | – | – | – | – | – | – | – | found to interact with mucin
PSSSSSSRIGDP [SEQ ID NO. 23] | – | – | – | – | – | – | – | found to be mucin interacting
QAASRVENYMHR [SEQ ID NO. 6] | – | – | – | – | – | – | – | found not to interact with mucin
RQSAGVL [SEQ ID NO. 14] | – | – | – | – | – | – | – | lack of interaction with mucin
RQSAGVLGFAPTNIDDTSFHA [SEQ ID NO. 16] | – | – | – | – | – | – | – | found to be mucin interacting
RQWVGDRA [SEQ ID NO. 17] | – | – | – | – | – | – | – | found to be mucin interacting
RWQVGDRADGE [SEQ ID NO. 19] | – | – | – | – | – | – | – | found to be mucin interacting
STSTVSTPVPPPVDDTTWLQSAS [SEQ ID NO. 15] | – | – | – | – | – | – | – | found to be mucus interacting
TPKTMTQTYDFS [SEQ ID NO. 4] | – | – | – | – | – | – | – | found not to interact with mucin
TSHTDAPPARSP [SEQ ID NO. 13] | – | – | – | – | – | – | – | found to be interacting with mucin
TSHTDAPPARSP [SEQ ID NO. 34] | – | – | – | – | – | – | – | found to be mucin interacting
VGDDSGGFSTTVSTEQNVPDPQV [SEQ ID NO. 20] | – | – | – | – | – | – | – | not found to be mucin interacting
YPYDANHTRSPT (not fully specified (N-terminus)) [SEQ ID NO. 10] | – | – | – | – | – | – | – | found to be interacting with mucin
